Experiment [1] concerns the target T1, human TRPV4 (hTRPV4) channels (Homo sapiens, UniProt Q9HBA0).
T1 construct: expressed in transfected cells; host or cells: HEK293T
Description: Whole-cell patch-clamp selectivity, hTRPV4 in HEK293T cells. The class given is cell-based. The following applies: HEK-293T; 1000 μM CA, current caused by 0.1 μM GSK1016790A, mean ± SD, n = 5. On the technique in general: Patch clamp records ionic current or voltage across a cell membrane.

The target of experiment [2] is T2, hTRPV3 I637A mutant (Homo sapiens, UniProt Q8NET8, I637A).
T2 construct: expressed in transfected cells; host or cells: HEK293T
T2 sequence (Q8NET8 1-790 I637A): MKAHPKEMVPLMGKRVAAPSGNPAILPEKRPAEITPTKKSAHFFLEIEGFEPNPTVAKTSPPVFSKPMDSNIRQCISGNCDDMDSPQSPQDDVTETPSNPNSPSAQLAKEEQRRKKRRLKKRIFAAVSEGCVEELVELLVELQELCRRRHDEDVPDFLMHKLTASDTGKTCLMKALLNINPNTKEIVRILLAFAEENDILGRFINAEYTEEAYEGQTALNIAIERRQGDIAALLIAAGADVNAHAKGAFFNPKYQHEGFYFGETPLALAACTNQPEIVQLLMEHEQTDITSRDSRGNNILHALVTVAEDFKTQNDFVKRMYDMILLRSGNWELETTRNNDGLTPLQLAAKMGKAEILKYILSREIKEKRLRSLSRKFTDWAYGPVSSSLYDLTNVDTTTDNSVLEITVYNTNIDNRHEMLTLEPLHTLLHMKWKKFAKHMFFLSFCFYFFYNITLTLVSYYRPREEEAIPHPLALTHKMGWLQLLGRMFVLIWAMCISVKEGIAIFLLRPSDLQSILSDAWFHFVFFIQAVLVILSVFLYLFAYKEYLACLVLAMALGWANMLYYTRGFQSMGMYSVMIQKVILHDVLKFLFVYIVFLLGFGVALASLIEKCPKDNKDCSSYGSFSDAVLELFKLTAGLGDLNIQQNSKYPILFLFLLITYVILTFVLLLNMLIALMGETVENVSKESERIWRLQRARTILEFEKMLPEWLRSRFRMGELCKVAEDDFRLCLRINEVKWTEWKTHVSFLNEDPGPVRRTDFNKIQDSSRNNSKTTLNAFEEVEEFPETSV
Put plainly: Whole-cell patch-clamp of hTRPV3 I637A mutant in HEK293T cells. The class given is cell-based.

A word on the inhibition: it is how much of the control response was suppressed. A high value points to a response far below the control. The term IC50 denotes the concentration needed to halve the response being measured.

T1 sequence (Q9HBA0 whole entry): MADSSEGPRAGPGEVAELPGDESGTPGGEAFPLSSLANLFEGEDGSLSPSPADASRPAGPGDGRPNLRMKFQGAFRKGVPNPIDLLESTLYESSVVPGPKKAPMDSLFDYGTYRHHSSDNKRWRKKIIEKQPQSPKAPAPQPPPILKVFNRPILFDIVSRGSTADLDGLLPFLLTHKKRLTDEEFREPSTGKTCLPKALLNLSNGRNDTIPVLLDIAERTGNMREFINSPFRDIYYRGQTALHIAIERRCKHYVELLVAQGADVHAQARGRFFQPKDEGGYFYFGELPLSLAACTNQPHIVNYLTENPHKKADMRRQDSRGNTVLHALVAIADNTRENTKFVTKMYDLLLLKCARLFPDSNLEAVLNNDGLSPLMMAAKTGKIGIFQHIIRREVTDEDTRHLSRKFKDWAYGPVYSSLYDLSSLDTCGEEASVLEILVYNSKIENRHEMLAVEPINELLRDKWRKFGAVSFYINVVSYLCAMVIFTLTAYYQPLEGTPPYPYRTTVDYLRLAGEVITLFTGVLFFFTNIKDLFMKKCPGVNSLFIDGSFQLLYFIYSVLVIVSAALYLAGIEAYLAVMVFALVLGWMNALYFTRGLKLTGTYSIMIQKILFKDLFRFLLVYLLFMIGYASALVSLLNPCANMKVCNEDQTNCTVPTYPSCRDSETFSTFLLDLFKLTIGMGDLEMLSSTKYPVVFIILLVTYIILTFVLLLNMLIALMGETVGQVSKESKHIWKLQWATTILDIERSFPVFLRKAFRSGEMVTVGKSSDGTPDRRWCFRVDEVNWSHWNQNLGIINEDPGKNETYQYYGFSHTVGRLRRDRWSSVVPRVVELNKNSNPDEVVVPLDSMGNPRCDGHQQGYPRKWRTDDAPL

Regarding `O=C(O)/C=C/c1ccc(O)c(O)c1` [CA, caffeic acid], in experiment [1], the inhibition at 1000 µM is roughly 4.6%. Further, in experiment [2] (I637A hTRPV3, 50 μM 2-APB, +80 mV, Hill fit, read-out: IC50, inhibition of I637A mutant outward currents), the half-inhibitory concentration (IC50) was 306 ± 61.1 µM. The “channel current inhibition by 500 μM CA compared to WT” value in experiment [2] (I637A mutant, 50 μM 2-APB, 500 μM CA) is “significantly diminished”.
